For the assay, the species on record is Mus musculus. Description: cells. Type of assay: functional, organism-based, ddY.
Setting [1] is: Mus musculus, ddY, read-out: IC50.

The results in this text go back to ChEMBL document CHEMBL1764965, “Contribution of cinnamic acid analogues in rosmarinic acid to inhibition of snake venom induced hemorrhage” (Bioorg Med Chem, 2011).

Molecules are shown by their SMILES.

Description: Antihemorrhagic activity in ddY mouse assessed as inhibition of Protobothrops flavoviridis venom-induced hemorrhage incubated with compound for 10 mins measured after 24 hrs

One may read the IC50 as the point on the concentration scale where inhibition reaches its midpoint. Take `COC(=O)/C=C/c1ccc(O)c(O)c1` [METHYLCAFFEATE]: the IC50 entry was “Not Active”.
In the case of `O=C(O)/C=C/c1ccc(O)cc1O`, the IC50 under setting [1] turned out to be 210 nM.
As to `O=C(O)/C=C/c1ccccc1O` [O-COUMARIC ACID], the IC50 under setting [1] was determined as 190 nM.
As for `COC(=O)/C=C/c1ccccc1` [E-METHYL CINNAMATE], the IC50 result is “Not Active”.
Turning to `O=C(/C=C/c1ccc(O)c(O)c1)O[C@H](Cc1ccc(O)c(O)c1)C(=O)O` [ROSMARINIC ACID], the IC50 under setting [1] was determined as 150 nM.
Take `O=C(O)CCc1ccc(O)c(O)c1` [DIHYDROCAFFEIC ACID]: the IC50 entry was “Not Active”.
Consider `O=C(/C=C/c1ccc(O)c(O)c1)O[C@@H]1C[C@](O)(C(=O)O)C[C@@H](O)[C@H]1O` [CHLOROGENIC ACID], for which the IC50 under setting [1] was 200 nM.
Take `O=C(O)/C=C\c1ccc(O)c(O)c1O`: the IC50 entry is given as “Not Active”.
Still for that read-out and setting: the same measure for `COc1cc(CC(O)C(=O)O)ccc1O` (stereo unspecified): “Not Active”.
As to `O=C(O)/C=C/c1ccccc1` [CINNAMIC ACID], the IC50 under setting [1] came to 180 nM.
In the case of `O=C/C=C/c1ccccc1` [CINNAMALDEHYDE], the IC50 entry is “Not Active”.
Same read-out and setting: the same measure for `COC(=O)[C@@H](Cc1ccc(O)c(O)c1)OC(=O)C=Cc1ccc(O)c(O)c1` (mixture of isomers) [ROSMARINIC ACID METHYL ESTER]: “Not Active”.
As to `O=C(O)/C=C/c1ccc(O)cc1` [COUMARIC ACID], the IC50 under setting [1] was determined as 190 nM.
`O=C(C=Cc1ccc(O)c(O)c1)O[C@H](Cc1ccc(O)c(O)c1)C(=O)O` (mixture of isomers) [(E/Z)-ROSMARINIC ACID]: the IC50 under setting [1] worked out at 600 nM.
Regarding `O=C(CCc1ccc(O)c(O)c1)O[C@H](Cc1ccc(O)c(O)c1)C(=O)O`, the IC50 entry is on record as “Not Active”.
With `O=C(O)/C=C/C=C/c1ccccc1` [JUAREZIC ACID], the IC50 under setting [1] stood at 220 nM.
As for `OC/C=C/c1ccccc1` [CINNAMIC ALCOHOL], the IC50 result is “Not Active”.
Consider `C/C=C/C(=O)O` [CROTONIC ACID], for which the IC50 under setting [1] was 220 nM.
The same measure, in the same setting: the same measure for `O=C(O)/C=C/c1cc(O)c(O)c(O)c1`: 180 nM; for `C/C=C/C=C/C(=O)O` [SORBIC ACID]: 210 nM.
In the case of `O=C(O)/C=C\c1cc(O)c(O)cc1O`, the IC50 result is on record as “Not Active”.
On the same count and under the same terms, the same measure for `O=C(O)/C=C\c1cc(O)c(O)c(O)c1`: “Not Active”.
In the case of `O=C(O)/C=C/c1cccc(O)c1`, the IC50 under setting [1] was determined as 180 nM.
Regarding `COc1ccc(/C=C/C(=O)O)cc1OC` [O,O'-DIMETHYLCAFFEIC ACID], the IC50 under setting [1] was determined as 240 nM.
Same read-out and setting: the same measure for `COc1cc(/C=C/C(=O)O)ccc1O` [FERULATE]: 200 nM; for `O=C(O)/C=C/c1ccc(O)c(O)c1` [CAFFEIC ACID]: 190 nM.
